Activity calls are given as the source filed them. The rule behind the calls is not given here.
Test system: rodent carcinogenicity bioassays, tumor incidence
Experiment: CCRIS carcinogenicity studies
How it was run: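 Archive of carcinogenicity, mutagenicity, tumor promotion and tumor inhibition results drawn from journals, NCI reports and other sources, expert-reviewed; covers 1985-2011 and is no longer updated.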

**Q.** Which results are given for `CN(C)CCN(Cc1ccccc1)c1ccccn1`?
**A.** carcinogen call (Species: RAT, Strain/Sex: SPRAGUE-DAWLEY/FEMALE, Route: ORAL, Dose: 0, 500, 1000 PPM IN DRINKING WATER 5D/WK FOR LIFE (STUDY DURATION: 493-754 D), Dose: 0, 500, 1000 PPM IN DRINKING WATER 5D/WK FOR LIFE (STUDY DURATION: 493-754 D)): inactive; negative; carcinogen call (Species: RAT, Strain/Sex: SPRAGUE-DAWLEY/MALE, Route: ORAL, Dose: 0, 500, 1000 PPM IN DRINKING WATER 5D/WK FOR LIFE (STUDY DURATION: 529-600 D), Dose: 0, 500, 1000 PPM IN DRINKING WATER 5D/WK FOR LIFE (STUDY DURATION: 529-600 D)): inactive; negative

**Q.** Which carcinogen call (Species: MOUSE, Strain/Sex: B6C3F1/FEMALE, Route: ORAL, Dose: 0, 0.03, 0.06% IN DIET, Dose: 0, 0.03, 0.06% IN DIET, Tumor Site: Type of Lesion: LIVER: HEMANGIOSARCOMA) does the source give for `Cc1ccc2c(c1[N+](=O)[O-])C(=O)c1ccccc1C2=O` here?
**A.** active; positive

**Q.** What about the carcinogen call (Species: MOUSE, Strain/Sex: B6C3F1/MALE, Route: ORAL, Dose: 0, 0.03, 0.06% IN DIET, Dose: 0, 0.03, 0.06% IN DIET, Tumor Site: Type of Lesion: LIVER: HEMANGIOSARCOMA) of the same molecule?
**A.** active; positive

**Q.** What about the carcinogen call (Species: RAT, Strain/Sex: F344/MALE, Route: ORAL, Dose: 0, 0.12, 0.06% IN DIET, Dose: 0, 0.12, 0.06% IN DIET, Tumor Site: Type of Lesion: LIVER: HEPATOCELLULAR CARCINOMA OR NEOPLASTIC NODULE, INTEGUMENTARY SYSTEM (SUBCUTANEOUS TISSUE): FIBROMA) of the same molecule?
**A.** active; positive

**Q.** With `COc1cc2c(c3oc4cccc(O)c4c(=O)c13)[C@@H]1C=CO[C@@H]1O2` as the molecule, how does the carcinogen call (Species: MOUSE, Route: ORAL, Tumor Site: Type of Lesion: LUNG) read?
**A.** active; positive

**Q.** What about the carcinogen call (Species: MOUSE, Strain/Sex: DBF1/FEMALE, Route: ORAL, Dose: 0, 30, 120 PPM IN DIET FOR 55 OR 51 WK, STUDY DURATION: 73 WK, Dose: 0, 30, 120 PPM IN DIET FOR 55 OR 51 WK, STUDY DURATION: 73 WK, Tumor Site: Type of Lesion: LIVER: HEMANGIOENDOTHELIOMA, ANGIOSARCOMA, LUNG: ADENOMA, INTEGUMENTARY SYSTEM (SUBCUTANEOUS TISSUE): ANGIOSARCOMA, Tumor Site: Type of Lesion: LIVER: HEMANGIOENDOTHELIOMA, ANGIOSARCOMA, LUNG: ADENOMA, INTEGUMENTARY SYSTEM (SUBCUTANEOUS TISSUE): ANGIOSARCOMA) of the same molecule?
**A.** active; positive

**Q.** What about the carcinogen call (Species: RAT, Route: DERMAL, Tumor Site: Type of Lesion: INTEGUMENTARY SYSTEM (SKIN)) of the same molecule?
**A.** active; positive

**Q.** What about the carcinogen call (Species: RAT, Route: ORAL, Tumor Site: Type of Lesion: LIVER) of the same molecule?
**A.** active; positive

**Q.** What about the carcinogen call (Species: RAT, Route: SUBCUTANEOUS, Tumor Site: Type of Lesion: INJECTION SITE) of the same molecule?
**A.** active; positive

**Q.** `Nc1ccc(O)c([N+](=O)[O-])c1` was tested. Which carcinogen call (Species: MOUSE, Strain/Sex: B6C3F1/FEMALE, Route: ORAL, Dose: 0, 1250, 2500 PPM IN DIET FOR 103 WK (STUDY DURATION: 105 WK), Dose: 0, 1250, 2500 PPM IN DIET FOR 103 WK (STUDY DURATION: 105 WK)) did it give?
**A.** inactive; negative

**Q.** What about the carcinogen call (Species: MOUSE, Strain/Sex: B6C3F1/MALE, Route: ORAL, Dose: 0, 1250, 2500 PPM IN DIET FOR 103 WK (STUDY DURATION: 105 WK), Dose: 0, 1250, 2500 PPM IN DIET FOR 103 WK (STUDY DURATION: 105 WK)) of the same molecule?
**A.** inactive; negative

**Q.** What about the carcinogen call (Species: RAT, Strain/Sex: F344/FEMALE, Route: ORAL, Dose: 0, 1250, 2500 PPM IN DIET FOR 103 WK (STUDY DURATION: 105 WK), Dose: 0, 1250, 2500 PPM IN DIET FOR 103 WK (STUDY DURATION: 105 WK), Tumor Site: Type of Lesion: BLADDER: CARCINOMA) of the same molecule?
**A.** equivocal

**Q.** And the carcinogen call (Species: RAT, Strain/Sex: F344/MALE, Route: ORAL, Dose: 0, 1250, 2500 PPM IN DIET FOR 103 WK (STUDY DURATION: 105 WK), Dose: 0, 1250, 2500 PPM IN DIET FOR 103 WK (STUDY DURATION: 105 WK), Tumor Site: Type of Lesion: URINARY BLADDER: TRANSITIONAL CELL CARCINOMA)?
**A.** active; positive

**Q.** For `CCCC(=O)CN(C)N=O`, which carcinogen call (Species: RAT, Strain/Sex: WISTAR/MALE, FEMALE, Route: SUBCUTANEOUS, Dose: 0, 75 MG/KG 1/WK FOR 6 WK TO ADULT ANIMALS (STUDY DURATION: LIFETIME), Tumor Site: Type of Lesion: ESOPHAGUS: PAPILLOMA, NASAL CAVITY: PAPILLOMA, SQUAMOUS CARCINOMA OR ADENOMA, SOFT TISSUE (INJECTION SITE): SARCOMA, THY, Tumor Site: Type of Lesion: ESOPHAGUS: PAPILLOMA, NASAL CAVITY: PAPILLOMA, SQUAMOUS CARCINOMA OR ADENOMA, SOFT TISSUE (INJECTION SITE): SARCOMA, THY) is on record?
**A.** active; positive

**Q.** What about the carcinogen call (Species: RAT, Strain/Sex: WISTAR/MALE,FEMALE, Route: INTRAPERITONEAL, Dose: 0, 75 MG/KG 1/WK FOR 6 WK BEGINNING AT 52-61 DAYS OF AGE (STUDY DURATION: >35 WK), Tumor Site: Type of Lesion: ESOPHAGUS: PAPILLOMA, NASAL CAVITY: TUMOR, INJECTION SITE: SARCOMA, Tumor Site: Type of Lesion: ESOPHAGUS: PAPILLOMA, NASAL CAVITY: TUMOR, INJECTION SITE: SARCOMA) of the same molecule?
**A.** active; positive

**Q.** With `Nc1ccc(N)c(Cl)c1` as the molecule, how does the carcinogen call (Species: MOUSE, Strain/Sex: B6C3F1/FEMALE, Route: ORAL, Dose: 0, 0.3, 0.6% OF DIET, Dose: 0, 0.3, 0.6% OF DIET) read?
**A.** inactive; negative

**Q.** What about the carcinogen call (Species: MOUSE, Strain/Sex: B6C3F1/MALE, Route: ORAL, Dose: 0, 0.3, 0.6% OF DIET, Dose: 0, 0.3, 0.6% OF DIET) of the same molecule?
**A.** inactive; negative

**Q.** What about the carcinogen call (Species: RAT, Strain/Sex: F344/FEMALE, Route: ORAL, Dose: 0, 0.15, 0.30% OF DIET, Dose: 0, 0.15, 0.30% OF DIET) of the same molecule?
**A.** inactive; negative

**Q.** And the carcinogen call (Species: RAT, Strain/Sex: F344/MALE, Route: ORAL, Dose: 0, 0.15, 0.30% OF DIET, Dose: 0, 0.15, 0.30% OF DIET)?
**A.** inactive; negative

**Q.** With `COC(=O)C1=CCCN(N=O)C1` as the molecule, how does the carcinogen call (Species: RAT, Strain/Sex: F344/MALE, Route: ORAL, Dose: 0, 20 PPM IN DRINKING WATER FOR DURATION OF STUDY (TOTAL DOSE: 0; 4.1 MMOL/KG) (STUDY DURATION: 128 WK), Dose: 0, 20 PPM IN DRINKING WATER FOR DURATION OF STUDY (TOTAL DOSE: 0; 4.1 MMOL/KG) (STUDY DURATION: 128 WK), Tumor Site: Type of Lesion: EXOCRINE PANCREAS: ACINAR ADENOMA) read?
**A.** active; positive

**Q.** Which results are given for `CCC(Cl)C(Cl)C(Cl)CC(Cl)C(Cl)C(C)Cl` (centres undefined)?
**A.** carcinogen call (Species: MOUSE, Strain/Sex: B6C3F1/FEMALE, Route: GAVAGE, Dose: 0, 125, 250 MG/KG IN CORN OIL 5 D/WK FOR 103 WK, Dose: 0, 125, 250 MG/KG IN CORN OIL 5 D/WK FOR 103 WK, Tumor Site: Type of Lesion: LIVER: HEPATOCELLULAR ADENOMA, HEPATOCELLULAR ADENOMA OR CARCINOMA, THYROID GLAND: FOLLICULAR CELL ADENOMA, FOLLICULAR C): active; positive; carcinogen call (Species: MOUSE, Strain/Sex: B6C3F1/MALE, Route: GAVAGE, Dose: 0, 125, 250 MG/KG IN CORN OIL 5 D/WK FOR 103 WK, Dose: 0, 125, 250 MG/KG IN CORN OIL 5 D/WK FOR 103 WK, Tumor Site: Type of Lesion: LIVER: HEPATOCELLULAR ADENOMA, HEPATOCELLULAR ADENOMA OR CARCINOMA): active; positive; carcinogen call (Species: RAT, Strain/Sex: F344/FEMALE, Route: GAVAGE, Dose: 0, 312, 625 MG/KG IN CORN OIL 5 D/WK FOR 104 WK, Dose: 0, 312, 625 MG/KG IN CORN OIL 5 D/WK FOR 104 WK, Tumor Site: Type of Lesion: LIVER: NEOPLASTIC NODULE, NEOPLASTIC NODULE OR HEPATOCELLULAR CARCINOMA, THYROID GLAND: FOLLICULAR CELL ADENOMA OR CARCI): active; positive; carcinogen call (Species: RAT, Strain/Sex: F344/MALE, Route: GAVAGE, Dose: 0, 312, 625 MG/KG IN CORN OIL 5 D/WK FOR 104 WK, Dose: 0, 312, 625 MG/KG IN CORN OIL 5 D/WK FOR 104 WK, Tumor Site: Type of Lesion: LIVER: NEOPLASTIC NODULE, NEOPLASTIC NODULE OR HEPATOCELLULAR CARCINOMA, KIDNEY: TUBULAR CELL ADENOMA OR ADENOCARCINOMA): active; positive

**Q.** With `O=C(O)C1=NN(c2ccc(S(=O)(=O)O)cc2)C(=O)C1N=Nc1ccc(S(=O)(=O)O)cc1` (centres undefined) as the molecule, how does the carcinogen call (Species: MOUSE, Strain/Sex: ICR/FEMALE, Route: DERMAL, Dose: 0, 1 MG IN 0.1 ML DISTILLED WATER 2/WK FOR A MEAN TOTAL DOSE OF 133.4 MG (STUDY DURATION: 18 MO)) read?
**A.** inactive; negative

**Q.** What about the carcinogen call (Species: MOUSE, Strain/Sex: ICR/MALE, Route: DERMAL, Dose: 0, 1 MG IN 0.1 ML DISTILLED WATER 2/WK FOR A MEAN TOTAL DOSE OF 133.4 MG (STUDY DURATION: 18 MO)) of the same molecule?
**A.** inactive; negative

**Q.** And the carcinogen call (Species: RAT, Strain/Sex: F344/FEMALE, Route: ORAL, Dose: 0, 1, 2% IN DRINKING WATER FOR 104 WK (STUDY DURATION: 112 WK), Dose: 0, 1, 2% IN DRINKING WATER FOR 104 WK (STUDY DURATION: 112 WK))?
**A.** inactive; negative

**Q.** And the carcinogen call (Species: RAT, Strain/Sex: F344/MALE, Route: ORAL, Dose: 0, 1, 2% IN DRINKING WATER FOR 104 WK (STUDY DURATION: 112 WK), Dose: 0, 1, 2% IN DRINKING WATER FOR 104 WK (STUDY DURATION: 112 WK))?
**A.** inactive; negative

From PubChem BioAssay AID1259411 (Chemical Carcinogenesis Research Information System (CCRIS), 2018)
